# Measurements taken from patent EP0429153A1, “Novel agroclavine and elymoclavine derivatives, processes for their preparation and their use in medicinal preparations” (SCHERING AKTIENGESELLSCHAFT, priority 1989, dated 1991).
# Tested on: männliche Wistar-Ratten
# Experiment: Induction of stereotypies in rats, automatic registration (method of Horowski)
# Format: in vivo
# Conditions: intraperitoneal, 60 minutes, n = 12
# Excerpt: Die dopaminagonistische Wirkung wurde mit Hilfe der von Horowski beschriebenen Methode der automatischen Registrierung von Stereotypien an Ratten bestimmt (Arzneim. Forsch. 12, 2281-2286, 1978): Unmittelbar nach intraperitonealer Prüfsubstanz- bzw. Vehikelverabreichung werden männliche Wistar-Ratten (90-120 g) einzeln in Zwangskäfige aus Acrylglas gesetzt. Uber ein vor dem Kopf der Tiere angebrachtes elektrodynamisches Aufnahmesystem wird die Zahl der Kontakte an einem stählernen Becher mit einem zentralen Metallstab als Folge der stereotypen Kau-, Leck- und Nagebewegungen während 60 Minuten registriert. Die Mittelwerte ± S.E.M. der Anzahl der Kontakte während 60 Minuten für die verschiedenen Behandlungsgruppen, die mit jeweils 12 Tieren besetzt sind, werden berechnet und die Signifikanz der Unterschiede zwischen den Mittelwerten der verschiedenen Prüfsubstanzdosen im Vergleich zur Vehikel-behandelten Kontrollgruppe mit Hilfe der einfachen Varianzanalyse in Verbindung mit dem Dunnett-Test ermittelt.
# [1] = Prüfsubstanzdosis 0.025 (dose unit not given)
# [2] = Prüfsubstanzdosis 0.1 (dose unit not given)
# [3] = Prüfsubstanzdosis 0.39 (dose unit not given)
# [4] = Prüfsubstanzdosis 1.56 (dose unit not given)
SMILES,Stereotypien (counts pro 60 Minuten) Mittelwert ± S.F.M.) [1],Stereotypien (counts pro 60 Minuten) Mittelwert ± S.F.M.) [2] [xx counts pro 60 Minuten],Stereotypien (counts pro 60 Minuten) Mittelwert ± S.F.M.) [3] [xx counts pro 60 Minuten],Stereotypien (counts pro 60 Minuten) Mittelwert ± S.F.M.) [4] [xx counts pro 60 Minuten],Stereotypien (counts pro 60 Minuten) Mittelwert ± S.F.M.) (Prüfsubstanzdosis 6.25 (dose unit not given)) [xx counts pro 60 Minuten]
CCCN1CC(C)=C[C@@H]2c3cccc4[nH]c(Cl)c(c34)C[C@H]21 [Cl / CH2CH2CH3],2091 ± 394 counts pro 60 Minuten,6470 ± 1018,7364 ± 927,8837 ± 699,10397 ± 1126
CCCN1CC(C)=C[C@@H]2c3cccc4[nH]c(C)c(c34)C[C@H]21 [CH3 / CH2CH2CH3],4726 ± 1148xx counts pro 60 Minuten,7601 ± 1182,9200 ± 672,10150 ± 598,
